What was measured:
[1] = test system: ER-positive breast cancer; conditions: cited from earlier work
VEGF = conditions: with chemotherapy; patients with colorectal, breast, and lung cancers; cited from earlier work
T47D cells = assay: COPIA RTK activation in growth factor stimulated T47D cells; format: cell-based, human; conditions: T47D cells stimulated with EGF or HRG
Procedure: (§1) SKBr3, MDA-MB-468, T47D and BT474 cell lines were obtained from ATCC. Cells were grown in the following growth media in 100 mm tissue culture plates at 37° C. in 5% CO2: SKBr3 McCoy's 5A medium with 10% FBS, MDA-MB-468: DMEM, 10% FBS, BT474: DMEM, 10B FBS, T47D: RPMI 1640, 10% FBS, 0.2 U/ml bovine insulin. Cells were harvested at 70-80% confluency with gentle detachment process (trypsin treatment+subsequent inactivation) and were subsequently counted and washed with 1×PBS. Cell stimulation was performed with 100 uM EGF or 20 uM heregulin β or both in serum-free growth media for 5 min. Stimulated cells were washed with 1×PBS and then were lysed (lysis buffer: 50 mM Tris, pH 7.4, 150 mM NaCl, 1% Trition X-100 and 200 mM Na3VO4) and kept on ice for 30 min.
(§2) Slides were first rinsed two times with TBST (50 mM Tris/150 mM NaCl/0.1% Tween-20, pH 7.2-7.4) before blocking them with 80 ul of Whatman Blocking Buffer 1 hr at RT or O/N at 4 C. After the blocking process, slides were washed 2 times with TBST. […]

MDA MB 468 cells = assay: COPIA per-cell RTK activation in growth factor stimulated MDA-MB-468 cells; format: cell-based, human; conditions: MDA MB 468 cells stimulated with EGF
Procedure: as §1, §2

Sequence of VEGF (P15692 207-311 limits assumed): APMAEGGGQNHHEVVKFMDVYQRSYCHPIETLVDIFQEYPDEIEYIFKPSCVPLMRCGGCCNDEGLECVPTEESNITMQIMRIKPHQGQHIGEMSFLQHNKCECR

CC/C(=C(\c1ccccc1)c1ccc(OCCN(C)C)cc1)c1ccccc1 [Tamoxifen]
reduction in the odds of recurrence and mortality ([1]; adjuvant therapy studies): 40% to 50%
patients with temporary remission ([1]; patients with metastatic disease): 30% to 50%

Bevacizumab
survival (VEGF): improve survival

EGF: epidermal growth factor, stimulatory growth factor used to induce HER1 phosphorylation (NSDSECPLSHDGYCLHDGVCMYIEALDKYACNCVVGYIGERCQYRDLKWWELR; Epidermal growth factor; UniProt P01133 971-1023, looked up)
HER1 activation (T47D cells): resulted in both HER1 and HER2 activation
HER2 activation (T47D cells): resulted in both HER1 and HER2 activation
level of pHER1 per cell (MDA MB 468 cells): 992.5 RFU/cell

Reference: patent US9726669B2, “Biomarkers for determining sensitivity of breast cancer cells to HER2-targeted therapy” (PIERIAN HOLDINGS, INC., priority 2009, dated 2017)
